From ChEMBL document CHEMBL4680144, “N-thiadiazole-4-hydroxy-2-quinolone-3-carboxamides bearing heteroaromatic rings as novel antibacterial agents: Design, synthesis, biological evaluation and target identification” (Eur J Med Chem, 2020)
≈ marks a conversion by molar mass, not a printed value. Calls of active or inactive are those of the source. No cut-off for these calls is given here.

Legend:
Staphylococcus aureus [1] = experiment: Antibacterial activity against methicillin-resistant Staphylococcus aureus clinical isolate 15-3 assessed as inhibition of bacterial growth incubated for 18 to 24 hrs by broth microdilution method; assay type: functional; conditions: time 18-24 hrs
[2] = Half life in Kunming mouse at 10 mg/kg, po measured upto 72 hrs by HPLC analysis; assay type: ADME, organism-based; conditions: in vivo
Staphylococcus aureus [3] = experiment: Potency index, ratio of vancomycin MIC to test compound MIC for antibacterial activity against methicillin-resistant Staphylococcus aureus clinical isolate 15-3 assessed as inhibition of bacterial growth incubated for 18 to 24 hrs by broth microdilution method; assay type: functional; conditions: time 18-24 hrs
[4] = system: Staphylococcus epidermidis; experiment: Antibacterial activity against methicillin-sensitive Staphylococcus epidermidis clinical isolate 15-4 assessed as inhibition of bacterial growth incubated for 18 to 24 hrs by broth microdilution method; assay type: functional; conditions: time 18-24 hrs
[5] = target: DNA topoisomerase 4 subunit B (Staphylococcus aureus, UniProt P0C1S7); experiment: Inhibition of Staphylococcus aures ParE using pBR322 DNA as substrate in presence of ATP
DNA topoisomerase 4 subunit B, sequence (P0C1S7 whole entry): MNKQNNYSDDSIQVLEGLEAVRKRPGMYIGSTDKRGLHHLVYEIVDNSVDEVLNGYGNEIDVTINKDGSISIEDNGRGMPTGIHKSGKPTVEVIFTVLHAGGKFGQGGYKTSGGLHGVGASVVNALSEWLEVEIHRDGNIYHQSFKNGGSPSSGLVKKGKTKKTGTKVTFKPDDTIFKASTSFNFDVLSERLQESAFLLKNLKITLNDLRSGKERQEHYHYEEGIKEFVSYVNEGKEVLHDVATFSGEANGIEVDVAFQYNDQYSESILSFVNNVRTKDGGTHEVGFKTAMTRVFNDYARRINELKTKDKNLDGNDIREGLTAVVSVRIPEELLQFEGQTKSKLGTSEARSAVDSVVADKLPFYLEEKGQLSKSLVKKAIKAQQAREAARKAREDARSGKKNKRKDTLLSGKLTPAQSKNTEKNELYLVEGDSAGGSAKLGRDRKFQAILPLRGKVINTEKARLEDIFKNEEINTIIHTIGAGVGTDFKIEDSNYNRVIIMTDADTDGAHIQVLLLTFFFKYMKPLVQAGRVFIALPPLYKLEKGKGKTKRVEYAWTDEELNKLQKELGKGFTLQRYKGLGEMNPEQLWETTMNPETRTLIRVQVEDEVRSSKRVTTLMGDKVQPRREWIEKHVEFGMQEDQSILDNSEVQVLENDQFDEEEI

Enterococcus faecalis [6] = experiment: Antibacterial activity against Enterococcus faecalis clinical isolate 15-2 assessed as inhibition of bacterial growth incubated for 18 to 24 hrs by broth microdilution method; assay type: functional; conditions: time 18-24 hrs
Staphylococcus aureus [7] = experiment: (§1) In vivo antibacterial activity against methicillin resistant Staphylococcus aureus clinical isolate 15-1 infected in kunming mouse assessed as animal survival rate at 9 mg/kg, po administered 6 hrs prior to bacterial infection and at 0 and 6 hrs post infection and measured for 7 days (reference value: 12.5 %); assay type: functional; conditions: 15-1, po, 168 h, time 7 day
Staphylococcus aureus [8] = experiment: Potency index, ratio of vancomycin MIC to test compound MIC for antibacterial activity against methicillin-resistant Staphylococcus aureus clinical isolate 15-1 assessed as inhibition of bacterial growth incubated for 18 to 24 hrs by broth microdilution method; assay type: functional; conditions: time 18-24 hrs
Staphylococcus aureus [9] = experiment: Antibacterial activity against methicillin-resistant Staphylococcus aureus clinical isolate 15-2 assessed as inhibition of bacterial growth incubated for 18 to 24 hrs by broth microdilution method; assay type: functional; conditions: time 18-24 hrs
Staphylococcus aureus [10] = experiment: Potency index, ratio of vancomycin MIC to test compound MIC for antibacterial activity against methicillin-resistant Staphylococcus aureus clinical isolate 15-9 assessed as inhibition of bacterial growth incubated for 18 to 24 hrs by broth microdilution method; assay type: functional; conditions: time 18-24 hrs
[11] = Inhibition of Staphylococcus aureus Gyrase B using linear pBR322 DNA as substrate incubated for 30 mins in presence of ATP by ADP-Glo assay
Staphylococcus aureus [12] = experiment: Antibacterial activity against methicillin-resistant Staphylococcus aureus clinical isolate 15-7 assessed as inhibition of bacterial growth incubated for 18 to 24 hrs by broth microdilution method; assay type: functional; conditions: time 18-24 hrs
Enterococcus faecium [13] = experiment: Antibacterial activity against Enterococcus faecium clinical isolate 15-2 assessed as inhibition of bacterial growth incubated for 18 to 24 hrs by broth microdilution method; assay type: functional; conditions: time 18-24 hrs
[14] = Protein binding in mouse plasma at 5 uM incubated for 5 hrs by equilibrium dialysis based LC-MS/MS analysis; assay type: ADME, cell-free; conditions: read-out: PPB
Staphylococcus aureus [15] = experiment: Inhibition of Staphylococcus aureus Gyrase B assessed as reduction in supercoiled pBR322 DNA production incubated for 30 mins by ethidium bromide staining based agarose gel electrophoresis method; conditions: dose 0.1-100 µM
Enterococcus faecalis [16] = experiment: Potency index, ratio of vancomycin MIC to test compound MIC for antibacterial activity against Enterococcus faecalis clinical isolate 15-2 assessed as inhibition of bacterial growth incubated for 18 to 24 hrs by broth microdilution method; assay type: functional; conditions: time 18-24 hrs
Staphylococcus aureus [17] = experiment: Potency index, ratio of vancomycin MIC to test compound MIC for antibacterial activity against methicillin resistant and vancomycin-intermediate sensitive Staphylococcus aureus ATCC 700699 assessed as inhibition of bacterial growth incubated for 18 to 24 hrs by broth microdilution method; assay type: functional; conditions: time 18-24 hrs
Enterococcus faecalis [18] = experiment: Antibacterial activity against vancomycin-resistant Enterococcus faecalis ATCC 700802 assessed as inhibition of bacterial growth incubated for 18 to 24 hrs by broth microdilution method; assay type: functional; conditions: time 18-24 hrs
[19] = Metabolic stability in mouse liver microsomes assessed as intrinsic clearance preincubated for 5 mins followed by NADPH addition and measured up to 60 mins by LC-MS/MS analysis; assay type: ADME, Microsome; conditions: time 65 min, read-out: CLH
[20] = system: Staphylococcus epidermidis; experiment: Potency index, ratio of vancomycin MIC to test compound MIC for antibacterial activity against methicillin-sensitive Staphylococcus epidermidis clinical isolate 15-4 assessed as inhibition of bacterial growth incubated for 18 to 24 hrs by broth microdilution method; assay type: functional; conditions: time 18-24 hrs
HUVEC = experiment: Cytotoxicity against HUVEC assessed as reduction in cell viability after 72 hrs by sulforhodamine B assay; assay type: cell-based; conditions: Homo sapiens
Staphylococcus aureus [21] = experiment: Antibacterial activity against methicillin-resistant Staphylococcus aureus clinical isolate 15-1 assessed as reduction in bacterial growth treated for 20 passages; assay type: functional; conditions: time 24 hrs
Staphylococcus aureus [22] = experiment: Antibacterial activity against wild type methicillin-sensitive Staphylococcus aureus ATCC 29213 assessed as inhibition of bacterial growth incubated for 18 to 24 hrs by broth microdilution method; assay type: functional; conditions: time 18-24 hrs
Staphylococcus aureus [23] = experiment: Antibacterial activity against methicillin resistant and vancomycin-intermediate sensitive Staphylococcus aureus ATCC 700699 assessed as inhibition of bacterial growth incubated for 18 to 24 hrs by broth microdilution method; assay type: functional; conditions: time 18-24 hrs
Enterococcus faecalis [24] = experiment: Potency index, ratio of vancomycin MIC to test compound MIC for antibacterial activity against Enterococcus faecalis clinical isolate 15-1 assessed as inhibition of bacterial growth incubated for 18 to 24 hrs by broth microdilution method; assay type: functional; conditions: time 18-24 hrs
Staphylococcus aureus [25] = experiment: Potency index, ratio of vancomycin MIC to test compound MIC for antibacterial activity against methicillin-resistant Staphylococcus aureus clinical isolate 15-8 assessed as inhibition of bacterial growth incubated for 18 to 24 hrs by broth microdilution method; assay type: functional; conditions: time 18-24 hrs
Staphylococcus aureus [26] = experiment: Potency index, ratio of vancomycin MIC to test compound MIC for antibacterial activity against methicillin-resistant Staphylococcus aureus clinical isolate 15-6 assessed as inhibition of bacterial growth incubated for 18 to 24 hrs by broth microdilution method; assay type: functional; conditions: time 18-24 hrs
Staphylococcus aureus [27] = experiment: Antibacterial activity against methicillin-resistant Staphylococcus aureus clinical isolate 15-8 assessed as inhibition of bacterial growth incubated for 18 to 24 hrs by broth microdilution method; assay type: functional; conditions: time 18-24 hrs
Staphylococcus aureus [28] = experiment: Bactericidal activity against methicillin-resistant Staphylococcus aureus clinical isolate 15-1 assessed as reduction in log10CFU at 1 to 2 times MIC measured after 24 hrs by time kill kinetics analysis; assay type: functional, organism-based
Enterococcus faecium [29] = experiment: Potency index, ratio of vancomycin MIC to test compound MIC for antibacterial activity against Enterococcus faecium clinical isolate 15-1 assessed as inhibition of bacterial growth incubated for 18 to 24 hrs by broth microdilution method; assay type: functional; conditions: time 18-24 hrs
Enterococcus faecalis [30] = experiment: Antibacterial activity against vancomycin-resistant Enterococcus faecalis ATCC 51299 assessed as inhibition of bacterial growth incubated for 18 to 24 hrs by broth microdilution method; assay type: functional; conditions: time 18-24 hrs
Staphylococcus aureus [31] = experiment: as §1, with “3” for “9”; assay type: functional; conditions: 15-1, po, 168 h, time 7 day
Enterococcus faecium [32] = experiment: Potency index, ratio of vancomycin MIC to test compound MIC for antibacterial activity against Enterococcus faecium clinical isolate 15-2 assessed as inhibition of bacterial growth incubated for 18 to 24 hrs by broth microdilution method; assay type: functional; conditions: time 18-24 hrs
Staphylococcus aureus [33] = experiment: In vivo antibacterial activity against methicillin-resistant Staphylococcus aureus clinical isolate 15-1 infected in Kunming mouse assessed as protection from systemic infection up to 50 mg/kg, po administered twice after bacterial infection; assay type: functional, organism-based; conditions: dose mg/kg <=50
[34] = Metabolic stability in mouse liver microsomes assessed as half life preincubated for 5 mins followed by NADPH addition and measured up to 60 mins by LC-MS/MS analysis; assay type: ADME, Microsome; conditions: time 65 min

**Q.** With `CCn1c(=O)c(C(=O)Nc2nnc(-c3nccs3)s2)c(O)c2ccccc21` as the compound, how does the MIC (Staphylococcus aureus [1]) read?
**A.** 0.5 µg/mL (≈ 1.25 µM)

**Q.** What about the half-life [2] of the same compound?
**A.** 2.3 h

**Q.** What about the Ratio (Staphylococcus aureus [3]) of the same compound?
**A.** 2

**Q.** And the MIC [4]?
**A.** 0.5 µg/mL (≈ 1.25 µM)

**Q.** What about the IC50 [5] of the same compound?
**A.** > 100 µM

**Q.** What about the MIC (Enterococcus faecalis [6]) of the same compound?
**A.** 0.5 µg/mL (≈ 1.25 µM)

**Q.** What about the survival at 9 mg/kg (Staphylococcus aureus [7]) of the same compound?
**A.** 87.5%

**Q.** And the Ratio (Staphylococcus aureus [8])?
**A.** 2

**Q.** And the MIC (Staphylococcus aureus [9])?
**A.** 0.5 µg/mL (≈ 1.25 µM)

**Q.** And the Ratio (Staphylococcus aureus [10])?
**A.** 2

**Q.** What about the IC50 [11] of the same compound?
**A.** 0.15 µM

**Q.** What about the MIC (Staphylococcus aureus [12]) of the same compound?
**A.** 0.5 µg/mL (≈ 1.25 µM)

**Q.** What about the MIC (Enterococcus faecium [13]) of the same compound?
**A.** 1 µg/mL (≈ 2.5 µM)

**Q.** What about the fraction unbound at 5 h, 5 µM [14] of the same compound?
**A.** 0.001

**Q.** What about the inhibition (Staphylococcus aureus [15]) of the same compound?
**A.** Dose-dependent effect

**Q.** And the Ratio (Enterococcus faecalis [16])?
**A.** 2

**Q.** And the Ratio (Staphylococcus aureus [17])?
**A.** 2

**Q.** And the MIC (Enterococcus faecalis [18])?
**A.** 0.5 µg/mL (≈ 1.25 µM)

**Q.** And the microsomal CLint [19]?
**A.** 38.9 µL/min/mg

**Q.** And the Ratio [20]?
**A.** 2

**Q.** What about the IC50 (HUVEC) of the same compound?
**A.** 38.8 µM

**Q.** And the MIC (Staphylococcus aureus [21])?
**A.** 0.5 µg/mL (≈ 1.25 µM)

**Q.** What about the MIC (Staphylococcus aureus [22]) of the same compound?
**A.** 0.1 µg/mL (≈ 0.25 µM)

**Q.** And the MIC (Staphylococcus aureus [23])?
**A.** 0.5 µg/mL (≈ 1.25 µM)

**Q.** And the Ratio (Enterococcus faecalis [24])?
**A.** 2

**Q.** And the Ratio (Staphylococcus aureus [25])?
**A.** 2

**Q.** And the Ratio (Staphylococcus aureus [26])?
**A.** 2

**Q.** And the MIC (Staphylococcus aureus [27])?
**A.** 0.5 µg/mL (≈ 1.25 µM)

**Q.** What about the Activity (Staphylococcus aureus [28]) of the same compound?
**A.** Active

**Q.** And the Ratio (Enterococcus faecium [29])?
**A.** 2

**Q.** And the MIC (Enterococcus faecalis [30])?
**A.** 0.5 µg/mL (≈ 1.25 µM)

**Q.** And the survival at 3 mg/kg (Staphylococcus aureus [31])?
**A.** 50%

**Q.** What about the Ratio (Enterococcus faecium [32]) of the same compound?
**A.** 2

**Q.** And the Activity (Staphylococcus aureus [33])?
**A.** inactive

**Q.** What about the half-life [34] of the same compound?
**A.** 0.593 h
